Some results are limits rather than exact numbers.

This experiment deals with IGF-1 induced AKT phosphorylation in A549 cells. The experiment can be described thus: IGF-1 induced AKT phosphorylation assay (A549 cell assay). The experiment is classed as cell-based. Particulars: Homo sapiens; A549 cells, 25 ng/ml IGF-1, phospho-AKT(Ser 473); read-out: average IC50 in the A549 cell assay. From the text: [Determination of IC50 Values of Compounds in Cell Based Assays of PI3K Activity] 96-well collagen treated clear bottom/black sided Costar plates were purchased from CORNING LIFE SCIENCES (Corning, N.Y.; at.#3904). Gibco RPMI medium (Cat.#11875), Biosource anti-phospho-AKT([…]) antibody (Cat.#44-621G) and recombinant IGF-1 (Cat.#PHG0074) were purchased from INVITROGEN (Carlsbad, Calif.). The secondary donkey anti-rabbit IgG horse radish peroxidase conjugate (Cat. #N[…]) and ECL chemiluminesence reagent (Cat.#RPN2209) were purchased from […] (Buckinghamshire, UK). Cell culture tested bovine serum albumin solution (35% in DPBS; Cat.#A7979) and all other chemicals were purchased from SIGMA (St. Louis, Mo.). The Wallac Victor2 1420 Multilabel HTS Counter was purchased from […] (Wellesley, Mass.) […] All wells (except no IGF-1 controls) were then treated with 25 ng/ml IGF-1 for 10 minutes at 37° C. in a 5% CO2 incubator. Following removal of the supernatants and washing with the wells with TBS (50 mM Tris pH 8.0 containing 138 mM NaCL and 27 mM KCl), 200 µL of 3.7% formaldehyde in TBS was added to each well, and the plate was incubated at 4° C. for 10 minutes. Supernatants were once again removed and replaced with 50 μL Methanol (-20° C.) and the plate incubated at 4° C. for 5 minutes. 200 μL of 0.1% BSA in TBS was then added to each well and the plate incubated at room temperature for 1⁄2 hour. Supernatants were removed and 50 μL of a solution comprising the primary anti-phospho-AKT([…]) antibody diluted 1:250 in TBS containing 0.1% BSA was added to each well (except control/background wells). The plate was then incubated for 11⁄2 hour at room temperature. Supernatants were removed, each well was washed 3 times with 200 μL TBS, and 100 μL of a solution containing the secondary donkey anti-rabbit IgG antibody HRP-conjugate diluted 1:100 in TBS-T (TBS containing 0.1% triton). Plates were then incubated for 1 hour at room temperature. After removing the secondary antibody, each well was washed 6 times with cold TBS-T, 100 μL of ECL was added to each well, and the plate was placed on an orbital shaker for 1 minute. The plates were then read on a Wallac Victor2 1420 Multilabel HTS Counter using the luminometry window (maximum light detection is measured at […]). IC50 values were determined from the inhibition curve.
For orientation: IC50 means the concentration that gives 50% inhibition. On to `COc1c(OCCN(C)C)ccc2c1N=C(NC(=O)c1cncnc1)N1CCN=C21` [Example 9, N-{8-[2-(dimethylamino)ethoxy]-7-methoxy-2,3-dihydroimidazo[1,2-c]quinazolin-5-yl}pyrimidine-5-carboxamide], for which the half-inhibitory concentration (IC50) is 100 to 1000 nM.

For `COc1c(OCCCN2CCOCC2)ccc2c1N=C(NC(=O)c1cnc(NCCO)nc1)N1CCN=C21` [Example 40, 2-[(2-hydroxyethyl)amino]-N-[7-methoxy-8-(3-morpholin-4-ylpropoxy)-2,3-dihydroimidazo[1,2-c]quinazolin-5-yl]pyrimidine-5-carboxamide], the half-maximal inhibitory concentration (IC50) was 100 to 1000 nM. Regarding `COc1c(OCCCN2CCOCC2)ccc2c1N=C(NC(=O)c1cnc(N)o1)N1CCN=C21` [Example 34, 2-amino-N-[7-methoxy-8-(3-morpholin-4-ylpropoxy)-2,3-dihydroimidazo[1,2-c]quinazolin-5-yl]-1,3-oxazole-5-carboxamide], the IC50 was in the range of 100 to 1000 nM. As for `COc1c(OCCCN2CCOCC2)ccc2c1N=C(NC(=O)c1cncnc1)N1CCN=C21` [Example 1, N-[7-methoxy-8-(3-morpholin-4-ylpropoxy)-2,3-dihydroimidazo[1,2-c]quinazolin-5-yl]pyrimidine-5-carboxamide], the figure is 100 to 1000 nM; as for `CNCCCOc1ccc2c(c1OC)N=C(NC(=O)c1cccnc1)N1CCN=C21` [Example 58, N-{7-methoxy-8-[3-(methylamino)propoxy]-2,3-dihydroimidazo[1,2-c]quinazolin-5-yl}nicotinamide], 100 to 1000 nM. The same measure for `COc1c(OCCCN2CCOCC2)ccc2c1N=C(NC(=O)c1ccc(N3CCCC3)nc1)N1CCN=C21` [Example 72, N-[7-methoxy-8-(3-morpholin-4-ylpropoxy)-2,3-dihydroimidazo[1,2-c]quinazolin-5-yl]-6-pyrrolidin-1-ylnicotinamide]: 100 to 1000 nM. As to `COc1ccc(C(=O)NC2=Nc3c(ccc(OCCCN4CCOCC4)c3OC)C3=NCCN23)cn1` [Example 99, 6-methoxy-N-[7-methoxy-8-(3-morpholin-4-ylpropoxy)-2,3-dihydroimidazo[1,2-c]quinazolin-5-yl]nicotinamide], the IC50 is less than 100 nM. The same measure for `COc1c(OCCN(C)C)ccc2c1N=C(NC(=O)c1ccc(C)nc1)N1CCN=C21` [Example 70, N-{8-[2-(dimethylamino)ethoxy]-7-methoxy-2,3-dihydroimidazo[1,2-c]quinazolin-5-yl}-6-methylnicotinamide]: less than 100 nM; for `COc1c(OCC(O)CN2CCOCC2)ccc2c1N=C(NC(=O)c1cccnc1)N1CCN=C21` (stereo not drawn) [Example 16, N-[8-(2-hydroxy-3-morpholin-4-ylpropoxy)-7-methoxy-2,3-dihydroimidazo[1,2-c]quinazolin-5-yl]nicotinamide]: less than 100 nM; for `COc1c(OCCN(C(C)C)C(C)C)ccc2c1N=C(NC(=O)c1cccnc1)N1CCN=C21` [Example 86, N-{8-[2-(diisopropylamino)ethoxy]-7-methoxy-2,3-dihydroimidazo[1,2-c]quinazolin-5-yl}nicotinamide]: 100 to 1000 nM.

Consider `COc1c(OCCN(C)C)ccc2c1N=C(NC(=O)c1sc(C)nc1C)N1CCN=C21` [Example 69, N-{8-[2-(dimethylamino)ethoxy]-7-methoxy-2,3-dihydroimidazo[1,2-c]quinazolin-5-yl}-2,4-dimethyl-1,3-thiazole-5-carboxamide], for which the IC50 was less than 100 nM. Take `CNc1ncc(C(=O)NC2=Nc3c(ccc(OCCCN4CCOCC4)c3OC)C3=NCCN23)cn1` [Example 90, N-[7-methoxy-8-(3-morpholin-4-ylpropoxy)-2,3-dihydroimidazo[1,2-c]quinazolin-5-yl]-2-(methylamino)pyrimidine-5-carboxamide]: the IC50 was less than 100 nM. As for `COCCNc1ncc(C(=O)NC2=Nc3c(ccc(OCCCN4CCOCC4)c3OC)C3=NCCN23)cn1` [Example 44, 2-[(2-methoxyethyl)amino]-N-[7-methoxy-8-(3-morpholin-4-ylpropoxy)-2,3-dihydroimidazo[1,2-c]quinazolin-5-yl]pyrimidine-5-carboxamide], the figure is greater than 1000 nM; as for `COc1c(OCCCN2CCOC(CO)C2)ccc2c1N=C(NC(=O)c1cccnc1)N1CCN=C21` (stereo not drawn) [Example 18, N-(8-{3-[2-(hydroxymethyl)morpholin-4-yl]propoxy}-7-methoxy-2,3-dihydroimidazo[1,2-c]quinazolin-5-yl)nicotinamide], less than 100 nM. Turning to `CCN1CCOC(CCOc2ccc3c(c2OC)N=C(NC(=O)c2cccnc2)N2CCN=C32)C1` (stereo not drawn) [Example 8, N-{8-[2-(4-ethylmorpholin-2-yl)ethoxy]-7-methoxy-2,3-dihydroimidazo[1,2-c]quinazolin-5-yl}nicotinamide], the IC50 was less than 100 nM. On to `COc1c(OCCCN2CCOCC2)ccc2c1N=C(NC(=O)c1ccc(N)nc1C)N1CCN=C21` [Example 31, 6-amino-N-[7-methoxy-8-(3-morpholin-4-ylpropoxy)-2,3-dihydroimidazo[1,2-c]quinazolin-5-yl]-2-methyl nicotinamide], for which the IC50 was less than 100 nM. Regarding `COCCNc1ccc(C(=O)NC2=Nc3c(ccc(OCCCN4CCOCC4)c3OC)C3=NCCN23)cn1` [Example 55, 6-[(2-methoxyethyl)amino]-N-[7-methoxy-8-(3-morpholin-4-ylpropoxy)-2,3-dihydroimidazo[1,2-c]quinazolin-5-yl]nicotinamide], the IC50 was 100 to 1000 nM. As for `COc1c(OCCCN2CCOCC2)ccc2c1N=C(NC(=O)c1ccc(NCc3ccco3)nc1)N1CCN=C21` [Example 54, 6-[(2-furylmethyl)amino]-N-[7-methoxy-8-(3-morpholin-4-ylpropoxy)-2,3-dihydroimidazo[1,2-c]quinazolin-5-yl]nicotinamide], the figure is 100 to 1000 nM; as for `CNC(=O)Nc1ccc(C(=O)NC2=Nc3c(ccc(OCCCN4CCOCC4)c3OC)C3=NCCN23)cn1` [Example 66, N-[7-methoxy-8-(3-morpholin-4-ylpropoxy)-2,3-dihydroimidazo[1,2-c]quinazolin-5-yl]-6-{[(methylamino)carbonyl]amino}nicotinamide], less than 100 nM.

`COc1c(OCC2CNCCO2)ccc2c1N=C(NC(=O)c1cccnc1)N1CCN=C21` (stereo not drawn) [Example 35, N-[7-methoxy-8-(morpholin-2-ylmethoxy)-2,3-dihydroimidazo[1,2-c]quinazolin-5-yl]nicotinamide]: the IC50 was less than 100 nM. As for `COc1c(OCCCN2CCCCC2)ccc2c1N=C(NC(=O)c1cccnc1)N1CCN=C21` [Example 74, N-[7-methoxy-8-(3-piperidin-1-ylpropoxy)-2,3-dihydroimidazo[1,2-c]quinazolin-5-yl]nicotinamide], the IC50 is less than 100 nM.

As for `COc1c(OCCCN2CCOCC2)ccc2c1N=C(NC(=O)c1ccncc1)N1CCN=C21` [Example 84, N-[7-methoxy-8-(3-morpholin-4-ylpropoxy)-2,3-dihydroimidazo[1,2-c]quinazolin-5-yl]isonicotinamide], the IC50 lay within 100 to 1000 nM. The same measure for `COc1c(OCCCN2CCOCC2)ccc2c1N=C(NC(=O)c1cnc(N)c(Br)c1)N1CCN=C21` [Example 33, 6-amino-5-bromo-N-[7-methoxy-8-(3-morpholin-4-ylpropoxy)-2,3-dihydroimidazo[1,2-c]quinazolin-5-yl]nicotinamide]: less than 100 nM; for `COc1c(OCCCN2CCOCC2)ccc2c1N=C(NC(=O)c1cnc(NCCN(C)C)nc1)N1CCN=C21` [Example 45, 2-{[2-(dimethylamino)ethyl]amino}-N-[7-methoxy-8-(3-morpholin-4-ylpropoxy)-2,3-dihydroimidazo[1,2-c]quinazolin-5-yl]pyrimidine-5-carboxamide]: 100 to 1000 nM; for `COc1c(OCCCN2CCN(C)CC2)ccc2c1N=C(NC(=O)c1cccnc1)N1CCN=C21` [Example 64, N-{7-methoxy-8-[3-(4-methylpiperazin-1-yl)propoxy]-2,3-dihydroimidazo[1,2-c]quinazolin-5-yl}nicotinamide]: 100 to 1000 nM.

Take `COc1c(OCCCN2CCOCC2)ccc2c1N=C(NC(=O)c1ccnc(N)c1)N1CCN=C21` [Example 5, 2-amino-N-[7-methoxy-8-(3-morpholin-4-ylpropoxy)-2,3-dihydroimidazo[1,2-c]quinazolin-5-yl]isonicotinamide]: the IC50 was 100 to 1000 nM. Take `COc1c(OCCCN2CCOCC2)ccc2c1N=C(NC(=O)c1ccsc1)N1CCN=C21` [Example 97, N-[7-methoxy-8-(3-morpholin-4-ylpropoxy)-2,3-dihydroimidazo[1,2-c]quinazolin-5-yl]thiophene-3-carboxamide]: the IC50 lay in the range of 100 to 1000 nM.

The values are drawn from patent USRE46856E1, “Substituted 2,3-dihydroimidazo[1,2-c]quinazoline derivatives useful for treating hyper-proliferative disorders and diseases associated with angiogenesis” (Bayer Intellectual Property GmbH, priority 2006, dated 2018).
